Data from US6441169B1, “Pyrimidin-2-oxy-4-one and pyrimidin-2-oxy-4-thione derivatives” (Syngenta Crop Protection, Inc., priority 1997, dated 2002).

How the values were obtained:
Puccinia graminis = type: in vivo; settings: wheat plants; a) spray 0.02% active ingredient, infected 24 hours later; b) soil drench 0.006% a.i., infected after 48 hours; evaluation 12 days after infection
Venturia inaegualis = assay: B-3 Residual-protective action against Venturia inaegualis on apples; type: in vivo; settings: apple cuttings; spray 0.02% a.i.; infected 24 hours later; evaluation 12 days after infection
Method: Residual-protective Action Against Venturia inaegualis on Apples Apple cuttings with fresh shoots 10 to 20 cm long are sprayed to drip point with a spray mixture (0.02% a.i.) prepared from a wettable powder formulation of the test compound. The plants are infected 24 hours later with a conidia suspension of the fungus. The plants are then incubated for 5 days at 90 to 100% relative humidity and stood in a greenhouse for a further 10 days at 20 to 24° C. Evaluation of the fungal infestation is made 12 days after infection.

[1] = test system: Colletotrichum lagenarium; assay: B-2 Action against Colletotrichum lagenarium on cucumbers; type: in vivo; settings: cucumber plants; spray concentration 0.002%; infected 2 days later; evaluation 8 days after infection
Method: Action Against Colletotrichum lagenarium on Cucumbers After a growth period of 2 weeks, cucumber plants are sprayed with an aqueous spray mixture (concentration 0.002%) prepared from a wettable powder formulation of the test compound and infected 2 days later with a spore suspension (1.5×10^5 spores/ml) of the fungus and incubated for 36 hours at 23° C. and high humidity. Incubation is then continued at normal humidity and c. 22° C. Evaluation of the fungal infestation is made 8 days after infection.

SMILES	activity against Puccinia graminis (fungal infestation) (Puccinia graminis)	activity against Venturia inaegualis (fungal infestation) (Venturia inaegualis)	melting point [°C]	activity against Colletotrichum lagenarium (fungal infestation) [1]
CCCn1c(OCC2(C)CC2)nc2ccc(Br)cc2c1=O [Compound 1.7, 6-bromo-2-(1-methylcyclopropylmethoxy)-3-n-propyl-3Hquinazoline-4-one]	good to excellent activity	good activity	81 to 85	good to excellent activity
CCCCn1c(OCC2(C)CC2)nc2ccc(Br)cc2c1=O [Compound 1.10, 6-bromo-2-(1-methylcyclopropylmethoxy)-3-n-buyl-3H-quinazoline-4-one]	good to excellent activity	good activity		good to excellent activity
CC1(COc2nc3ccc(Br)cc3c(=O)n2CC2CC2)CC1 [Compound 1.15]	good to excellent activity	good activity		good to excellent activity
CCCn1c(OCC2CC2C)nc2ccc(Br)cc2c1=O (centres unmarked) [Compound 1.22, 6-bromo-2-(2-methylcyclopropylmethoxy)-3-n-propyl-3H-quinazoline-4-one]	good to excellent activity	good activity	49 to 51	good to excellent activity
CCCCn1c(OCC2CC2C)nc2ccc(Br)cc2c1=O (centres unmarked) [Compound 1.25, 6-bromo-2-(2-methylcyclopropylmethoxy)-3-n-buyl-3H-quinazoline-4-one]	good to excellent activity	good activity		good to excellent activity
CC1CC1COc1nc2ccc(Br)cc2c(=O)n1CC1CC1 (centres unmarked) [Compound 1.30]	good to excellent activity	good activity		good to excellent activity
CCCn1c(OCC2CC2(Cl)Cl)nc2ccc(Br)cc2c1=O (centres unmarked) [Compound 1.37]	good to excellent activity	good activity		good to excellent activity
CCCn1c(OCC2(C)CC2)nc2sc(Cl)cc2c1=O [Compound 3.6, 6-chloro-2-(1-methylcyclopropylmethoxy)-3-n-propyl-3H-thieno[2.3-d]pyrimidin-4-one]	good to excellent activity	good activity		good to excellent activity
CCCn1c(OCC2(C)CC2)nc2sc(Br)cc2c1=O [Compound 3.7, 6-bromo-2-(1-methylcyclopropylmethoxy)-3-n-propyl-3H-thieno[2.3-d]pyrimidin-4-one]	good to excellent activity	good activity		good to excellent activity
CCCn1c(OCC2CC2C)nc2sc(Cl)cc2c1=O (centres unmarked) [Compound 3.21, 6-chloro-2-(2-methylcyclopropylmethoxy)-3-n-propyl-3H-thieno[2.3-d]pyrimidin-4-one]	good to excellent activity	good activity		good to excellent activity
CCCn1c(OCC2CC2C)nc2sc(Br)cc2c1=O (centres unmarked) [Compound 3.22, 6-bromo-2-(2-methylcyclopropylmethoxy)-3-n-propyl-3H-thieno[2.3-d]pyrimidin-4-one]	good to excellent activity	good activity		good to excellent activity
CCCn1c(OCC2CC2(Cl)Cl)nc2sc(Cl)cc2c1=O (centres unmarked) [Compound 3.36, 6-chloro-2-(2,2-Dichlorocyclopropylmethoxy)-3-n-propyl-3H-thieno-[2.3-d]pyrimidin-4-one]	good to excellent activity	good activity		good to excellent activity
CCCn1c(OCC2CC2(F)F)nc2sc(Cl)cc2c1=O (centres unmarked) [Compound 3.51]	good to excellent activity	good activity		good to excellent activity
CCCn1c(OCC2CC2(F)F)nc2sc(Br)cc2c1=O (centres unmarked) [Compound 3.52]	good to excellent activity	good activity		good to excellent activity
CCCn1c(OCC2(C)CC2)nc2c(Br)csc2c1=O [Compound 4.8]	good to excellent activity	good activity		good to excellent activity
CCCn1c(OCC2CC2C)nc2c(Br)csc2c1=O (centres unmarked) [Compound 4.23]	good to excellent activity	good activity		good to excellent activity
